Measurements taken from US20200207989A1, “FLUORESCENT PROBE FOR ALDH3A1 DETECTION” (The University of Tokyo, priority 2016, published 2020).

What was measured:
OE21 cells [1] = test: SYTOX Red Dead Cell Stain assay during flow cytometry; assay type: cell-based; conditions: OE21 shRNA cells, probe 5 with MK-571, SYTOX Red Dead Cell Stain
Description: Flow cytometry was carried out using probe 5 and OE21 cells. The cells were treated using trypsin, and the cell density was measured after passing the cells through a cell strainer (40 μm, Corning). A quantity of 500 μL of a cell suspension to make 2.5-5×10^5/mL in medium containing 40 μM of probe 5 was prepared and cultured for 90 minutes at 37° C. After centrifuging for three minutes at 1500 rpm and removing the supernatant after the reaction, the cells were washed with chilled medium, centrifuged, and the medium was removed. The cells were again suspended in 100 μL of medium, and 4 μL of SYTOX (registered trademark) Red Dead Cell Stain (Thermo Fisher) was added. After standing for five minutes on ice, 150 μL of medium was added. A sample with CB7 (10 μM) added was used as a negative control. Analysis was carried out using FACS Canto II (BD Biosciences). Excitation was provided by a blue laser (488 nm), and the brightness of probe 5 was detected in each cell by FITC channel (515-545 nm). About 30,000 cells were analyzed in each sample after removing doublets and removing dead cells. The positive gate was set in a range from near to above the upper limit of brightness in the negative control according to ALDEFLUOR assay, so that at most 3% of the cells were present within the gate in the negative control sample. Three independent tests were run. […]

OE21 cells [2] = test: Flow cytometry of OE21 cells (positive rate); assay type: cell-based
Description: Flow cytometry was carried out using probe 5 and OE21 cells. The cells were treated using trypsin, and the cell density was measured after passing the cells through a cell strainer (40 μm, Corning). […] After centrifuging for three minutes at 1500 rpm and removing the supernatant after the reaction, the cells were washed with chilled medium, centrifuged, and the medium was removed. The cells were again suspended in 100 μL of medium, and 4 μL of SYTOX (registered trademark) Red Dead Cell Stain (Thermo Fisher) was added. After standing for five minutes on ice, 150 μL of medium was added. […] Analysis was carried out using FACS Canto II (BD Biosciences). Excitation was provided by a blue laser (488 nm), and the brightness of probe 5 was detected in each cell by FITC channel (515-545 nm). About 30,000 cells were analyzed in each sample after removing doublets and removing dead cells. The positive gate was set in a range from near to above the upper limit of brightness in the negative control according to ALDEFLUOR assay, so that at most 3% of the cells were present within the gate in the negative control sample. Three independent tests were run.
ALDH3A1 was knocked down using small interference RNA (siRNA) to confirm that the positive group in flow cytometry using 0E21 cells and compound 5 was due to ALDH3A1 activity, and flow cytometry was conducted. Two siRNAs confirmed to be effective (Silencer (registered trademark) Select, s1243 and s1244) and a negative control (Silencer® negative control #1) were purchased from Thermo Fisher. Lipofectamine® RNAiMAX as transfection reagent and Opti-MEM® as diluent were purchased from Thermo Fisher. According to the instruction manual, 300 μL of siRNA-Lipofectamine complex was produced according to the instruction manual so that siRNA was 10 nM and Lipofectamine was 3%, and 250 μL thereof was mixed with 2.5 mL of OE21 cell suspension and sown in six-well dishes. The effect of knockdown was confirmed after six days by Western blotting (FIG. 6a).
Lysates were produced using negative control cells (ctrl) in which ALDH3A1 was not knocked down and cells (KD) in which ALDH3A1 was permanently knocked down. Western blotting was carried out, and pronounced knockdown of ALDH3A1 was confirmed (FIG. 9a). […] The top 25% (top) and bottom 25% (bottom) of fluorescent brightness were sorted out by FACS Aria II using a sample in which the positive and negative were well separated. The respective lysates were produced, Western blotting was carried out using the same, and the expression levels of ALDH3A1 were compared (FIG. 9c).

ALDH3A1 = target: T1, ALDH3A1 (Homo sapiens, UniProt P30838); test: Kinetic characteristics (Michaelis-Menten Km, Kcat) with ALDH3A1; assay type: biochemical; conditions: five minutes at 37° C., Tris buffer pH 7.5
T1 construct: purchased
T1 sequence (P30838 1-453): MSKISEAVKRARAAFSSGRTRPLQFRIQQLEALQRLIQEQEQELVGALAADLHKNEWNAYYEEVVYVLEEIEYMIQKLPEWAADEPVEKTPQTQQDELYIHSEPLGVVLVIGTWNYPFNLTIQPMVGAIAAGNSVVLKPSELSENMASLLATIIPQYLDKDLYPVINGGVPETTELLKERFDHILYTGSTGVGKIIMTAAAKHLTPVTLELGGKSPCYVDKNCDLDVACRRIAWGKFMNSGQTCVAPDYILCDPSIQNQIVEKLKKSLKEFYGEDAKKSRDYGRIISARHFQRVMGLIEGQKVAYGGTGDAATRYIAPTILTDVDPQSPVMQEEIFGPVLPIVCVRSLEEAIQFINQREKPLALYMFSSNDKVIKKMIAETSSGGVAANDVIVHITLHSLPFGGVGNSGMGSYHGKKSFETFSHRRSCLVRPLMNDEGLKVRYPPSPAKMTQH
Description: Human recombinant ALDH1A1/1A3/3A1 was purchased, and 100 mM of KCL, 2 mM of DTT, 1 mM of NAD(P), 10-100 nM of each ALDH, and 10-80 μM of each compound were mixed in Tris buffer (100 mM, pH 7.5), reacted for 30 minutes at 37° C., an equal amount of acetonitrile added, and the reaction stopped. The reaction solution was analyzed by UPLC/MS/MS (Waters). The UPCL chromatogram was carried out over five minutes at a flow rate of 800 μL/min by a linear gradient from 5% acetonitrile 0.01 M ammonium formate/water to 95% acetonitrile 0.01 M ammonium formate/water. An aldehyde-form and carboxylic acid-form probe were detected by the absorbance at a wavelength of 504 nm, and m/z of the MS spectrum at each peak was confirmed to agree with the expected m/z.
For the reaction, 100 mM of KCL, 2 mM of DTT, 1 mM of NAD(P), and five to six concentrations within the range of 10-100 nM of each ALDH and 0.1-80 μM of each probe were selected, mixed in Tris buffer (100 mM, pH 7.5), and reacted for five minutes at 37° C.; an equal amount of acetonitrile was added, and the reaction was stopped. Detection of the aldehyde-form/carboxylic acid-form probes was carried out using the same method as described above by UPLC/MS/MS. Km and Kcat were calculated by fitting the reaction rate at each probe concentration obtained to the Michaelis-Menten equation. A Kaleida Graph ver. 4.1 (Hulinks, Inc.) was used in fitting.
The Kcat ratio (Kcat of ALDH3A1/Kcat of ALDH1A1) was calculated for probe 1, probe 3, and probe 5 as an indicator of ALDH1A1/ALDH3A1 specificity because the probe reaction rate at the actual probe use concentration is believed to be close to Vmax since Km is relatively small (Table 5).

[3] = 50 μM probe 5, 200 μM MK-571, CB7 20 μM control

## CCN(CCOCCNC(=O)c1ccc(-c2c3ccc(=O)cc-3oc3cc(O)ccc23)c(C)c1)c1ccc(C=O)cc1 [Probe 5, 2-(2-(N-ethyl-N-(4-formylphenyl)amino)ethoxy)ethyl-3-methyl-4-(6-hydroxyxanthen-3-on-9-yl)-benzamide]
OE21 cells [1]
  Dead cells / cell death due to the probe: virtually no dead cells were found
OE21 cells [2]; 40 μM probe 5, 90 minutes at 37° C., no MK-571, gate set with CB7 10 μM control
  Positive rate in flow cytometry: 10-15%
OE21 cells [2]; [3]
  Positive rate in flow cytometry with MK-571, ALDH3A1 siRNA knockdown: around 10%
  Positive rate in flow cytometry with MK-571, cells treated by negative control siRNA: about 90%
OE21 cells [2]; 50 μM probe 5, MK-571 200 μM
  Positive rate in flow cytometry with MK-571: about 90%
ALDH3A1
  Km: 3.49 ± 0.55 µM
